Test results from PubChem BioAssay AID192 (DTP/NCI, 2004).
Where “and” joins values, the source holds several entries; their conditions need not be identical. Identical values can stand only once. Toxic doses and inconclusive results are not listed.

System: BDF1 mice, B16 melanoma ip, median survival T/C
Experiment: NCI In Vivo Anticancer Drug Screen. Data for tumor model B16 Melanoma (intraperitoneal) in B6D2F1 (BDF1) mice
Details: endpoint: median survival time, higher = longer survival
How it was run: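 Vehicle-treated animals serve as the reference (C); treated animals (T) are scored for survival or tumor size after tumor transplantation.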

[1] = dose: 50.0 mg/kg/injection, schedule: Q04DX003 (ip), vehicle: saline with Tween-80
[2] = dose: 100.0 mg/kg/injection, schedule: Q04DX003 (ip), vehicle: saline with Tween-80
[3] = dose: 400.0 mg/kg/injection, schedule: Q04DX003 (ip), vehicle: saline with Tween-80
[4] = dose: 25.0 mg/kg/injection, schedule: Q01DX009 (ip), vehicle: saline
[5] = dose: 50.0 mg/kg/injection, schedule: Q01DX009 (ip), vehicle: saline
[6] = dose: 100.0 mg/kg/injection, schedule: Q01DX009 (ip), vehicle: saline
[7] = dose: 6.25 mg/kg/injection, schedule: Q01DX009 (ip), vehicle: saline with Tween-80
[8] = dose: 12.5 mg/kg/injection, schedule: Q01DX009 (ip), vehicle: saline with Tween-80
[9] = dose: 25.0 mg/kg/injection, schedule: Q01DX009 (ip), vehicle: saline with Tween-80
[10] = dose: 50.0 mg/kg/injection, schedule: Q01DX009 (ip), vehicle: saline with Tween-80
[11] = dose: 200.0 mg/kg/injection, schedule: Q04DX003 (ip), vehicle: saline with Tween-80
[12] = dose: 100.0 mg/kg/injection, schedule: Q01DX009 (ip), vehicle: saline with Tween-80
[13] = dose: 200.0 mg/kg/injection, schedule: Q01DX009 (ip), vehicle: saline with Tween-80
[14] = dose: 50.0 mg/kg/injection, schedule: Q01DX009 (ip), vehicle: Klucel (hydroxypropylcellulose) (HPC)
[15] = dose: 200.0 mg/kg/injection, schedule: Q01DX009 (ip), vehicle: saline
[16] = dose: 400.0 mg/kg/injection, schedule: Q01DX009 (ip), vehicle: saline with Tween-80

O=C(Nc1ccc2c(c1)Cc1cc(Br)ccc1-2)C(F)(F)F
T/C (dose: 25.0 mg/kg/injection, schedule: Q04DX003 (ip), vehicle: saline with Tween-80): 103 % of control | T/C [1]: 109 % of control | T/C [2]: 95 % of control and 96 % of control | T/C [3]: 86 % of control

CN(C)CCC1CCCCN1 (stereo not drawn)
T/C [4]: 112 % of control | T/C [5]: 100 % of control | T/C [6]: 100 % of control

CC(=O)Nc1ccc(S(=O)(=O)N/N=C\c2ccc(Cl)c(Cl)c2)cc1
T/C [7]: 111 % of control | T/C [8]: 105 % of control | T/C [9]: 117 % of control

CCC(C)C(CO)c1ccccc1 (stereo not drawn)
T/C [9]: 102 % of control | T/C [10]: 99 % of control

NC(=S)N/N=C/c1ccc2c(c1)OCO2
T/C [1]: 106 % of control | T/C [2]: 106 % of control | T/C [11]: 110 % of control

O=[N+]([O-])c1ccc(Cl)c2c([N+](=O)[O-])cccc12
T/C [8]: 100 % of control | T/C [9]: 91 % of control | T/C [10]: 93 % of control and 94 % of control

CC[C@@]1(O)C(=O)OCc2c1cc1n(c2=O)Cc2cc3ccccc3nc2-1
T/C (dose: 0.39 mg/kg/injection, schedule: Q01DX009 (ip), vehicle: other): 151 % of control | T/C (dose: 0.79 mg/kg/injection, schedule: Q01DX009 (ip), vehicle: other): 189 % of control

COC(=O)[C@]1(C)CCC[C@]2(C)[C@H]3CC4OO[C@@]3(CC[C@H]21)[C@H]1O[C@@]41C(C)C
T/C [12]: 100 % of control | T/C [13]: 113 % of control

O=C(O)c1cccc2[nH]c(=O)oc(=O)c12
T/C [12]: 89 % of control | T/C [13]: 91 % of control

CC1(C)N=C(N)N=C(N)N1c1ccc(OCC(=O)N2CCOCC2)c(Cl)c1
T/C [4]: 104 % of control | T/C [5]: 93 % of control | T/C [6]: 98 % of control

COC(=O)CC(=O)CBr
T/C (dose: 5.0 mg/kg/injection, schedule: Q01DX009 (ip), vehicle: saline): 100 % of control | T/C (dose: 10.0 mg/kg/injection, schedule: Q01DX009 (ip), vehicle: saline): 93 % of control | T/C (dose: 20.0 mg/kg/injection, schedule: Q01DX009 (ip), vehicle: saline): 94 % of control

COC1=C(OC)C(=O)C(SC/C=C(\C)CCCC(C)CCCC(C)CCCC(C)C)=CC1=O (stereo not drawn)
T/C [8]: 108 % of control | T/C [9]: 105 % of control | T/C [10]: 110 % of control | T/C [12]: 115 % of control

O=C(O)C1=CCC=CC1
T/C [2]: 100 % of control | T/C [11]: 103 % of control | T/C [3]: 96 % of control

ClN=C(c1ccccc1)c1ccccc1
T/C (dose: 25.0 mg/kg/injection, schedule: Q01DX009 (ip), vehicle: Klucel (hydroxypropylcellulose) (HPC)): 105 % of control | T/C [14]: 105 % of control

c1ccc(C2=C([P+](c3ccccc3)(c3ccccc3)c3ccccc3)CCO2)cc1
T/C (dose: 6.0 mg/kg/injection, schedule: Q01DX009 (ip), vehicle: saline): 116 % of control | T/C (dose: 6.25 mg/kg/injection, schedule: Q01DX009 (ip), vehicle: saline): 105 % of control

CCCCCCCCCCCC(c1ccccc1)[N+](C)(C)Cc1ccccc1 (stereo not drawn)
T/C (dose: 0.25 mg/kg/injection, schedule: Q01DX009 (ip), vehicle: saline sonified): 94 % of control | T/C (dose: 0.5 mg/kg/injection, schedule: Q01DX009 (ip), vehicle: saline sonified): 110 % of control | T/C (dose: 1.0 mg/kg/injection, schedule: Q01DX009 (ip), vehicle: saline sonified): 105 % of control | T/C (dose: 2.0 mg/kg/injection, schedule: Q01DX009 (ip), vehicle: saline sonified): 102 % of control

O=C(Nc1ccc(F)cc1)C(c1ccccc1)c1ccccc1
T/C [8]: 98 % of control | T/C [9]: 92 % of control | T/C [10]: 89 % of control

CC(=O)Oc1ccc[nH]c1=O
T/C (dose: 75.0 mg/kg/injection, schedule: Q01DX009 (ip), vehicle: saline): 91 % of control and 94 % of control | T/C (dose: 150.0 mg/kg/injection, schedule: Q01DX009 (ip), vehicle: saline): 91 % of control | T/C [13]: 105 % of control | T/C [15]: 90 % of control and 95 % of control | T/C (dose: 300.0 mg/kg/injection, schedule: Q01DX009 (ip), vehicle: saline): 104 % of control and 105 % of control | T/C [16]: 105 % of control | T/C (dose: 600.0 mg/kg/injection, schedule: Q01DX009 (ip), vehicle: saline with Tween-80): 106 % of control

CC(C)Cc1ccc(OC(=O)Nc2ccc(Cl)cc2)cc1
T/C [7]: 97 % of control | T/C [8]: 100 % of control | T/C [9]: 91 % of control and 98 % of control

CCC1OCCN1C(C)C (stereo not drawn)
T/C [4]: 102 % of control | T/C [5]: 106 % of control

COc1cc(NCc2ccc3nc(N)nc(N)c3c2C)cc(OC)c1OC
T/C (dose: 0.62 mg/kg/injection, schedule: Q01DX009 (ip), vehicle: sodium bicarbonate): 104 % of control | T/C (dose: 1.25 mg/kg/injection, schedule: Q01DX009 (ip), vehicle: sodium bicarbonate): 101 % of control and 117 % of control | T/C (dose: 2.5 mg/kg/injection, schedule: Q01DX009 (ip), vehicle: sodium bicarbonate): 107 % of control and 124 % of control | T/C (dose: 5.0 mg/kg/injection, schedule: Q01DX009 (ip), vehicle: sodium bicarbonate): 124 % of control | T/C (dose: 10.0 mg/kg/injection, schedule: Q01DX009 (ip), vehicle: sodium bicarbonate): 155 % of control | T/C (dose: 20.0 mg/kg/injection, schedule: Q01DX009 (ip), vehicle: sodium bicarbonate): 150 % of control and 164 % of control

CC(=O)Nc1ccc(C)c(Cl)c1
T/C [12]: 111 % of control | T/C [13]: 90 % of control

CC(=O)Oc1cc(C)c(OC(C)=O)c2ccccc12
T/C [14]: 94 % of control | T/C (dose: 100.0 mg/kg/injection, schedule: Q01DX009 (ip), vehicle: Klucel (hydroxypropylcellulose) (HPC)): 88 % of control

Cc1ccc(NC(=O)c2ccccc2)cc1[As]=[As]c1cc(NC(=O)c2ccccc2)ccc1C (stereo not drawn)
T/C (dose: 0.04 mg/kg/injection, schedule: Q01DX009 (ip), vehicle: saline with Tween-80): 107 % of control | T/C (dose: 0.08 mg/kg/injection, schedule: Q01DX009 (ip), vehicle: saline with Tween-80): 102 % of control | T/C (dose: 0.08 mg/kg/injection, schedule: Q04DX003 (ip), vehicle: saline): 101 % of control | T/C (dose: 0.15 mg/kg/injection, schedule: Q01DX009 (ip), vehicle: saline with Tween-80): 104 % of control | T/C (dose: 0.15 mg/kg/injection, schedule: Q04DX003 (ip), vehicle: saline): 91 % of control | T/C (dose: 0.16 mg/kg/injection, schedule: Q04DX003 (ip), vehicle: Klucel (hydroxypropylcellulose) (HPC)): 101 % of control | T/C (dose: 0.3 mg/kg/injection, schedule: Q01DX009 (ip), vehicle: saline with Tween-80): 100 % of control | T/C (dose: 0.3 mg/kg/injection, schedule: Q04DX003 (ip), vehicle: saline): 92 % of control | T/C (dose: 0.31 mg/kg/injection, schedule: Q04DX003 (ip), vehicle: Klucel (hydroxypropylcellulose) (HPC)): 98 % of control | T/C (dose: 0.6 mg/kg/injection, schedule: Q04DX003 (ip), vehicle: saline): 91 % of control | T/C (dose: 0.63 mg/kg/injection, schedule: Q04DX003 (ip), vehicle: saline with Tween-80): 89 % of control | T/C (dose: 2.5 mg/kg/injection, schedule: Q04DX003 (ip), vehicle: saline with Tween-80): 161 % of control | T/C (dose: 5.0 mg/kg/injection, schedule: Q04DX003 (ip), vehicle: saline with Tween-80): 105 % of control

[N-]=[N+]=CC(=O)NCC(=O)NN
T/C (dose: 50.0 mg/kg/injection, schedule: Q01DX009 (ip), vehicle: other): 111 % of control | T/C [5]: 110 % of control | T/C (dose: 100.0 mg/kg/injection, schedule: Q01DX009 (ip), vehicle: other): 106 % of control | T/C [6]: 113 % of control | T/C (dose: 200.0 mg/kg/injection, schedule: Q01DX009 (ip), vehicle: other): 120 % of control | T/C [15]: 123 % of control | T/C (dose: 300.0 mg/kg/injection, schedule: Q01DX009 (ip), vehicle: other): 166 % of control | T/C (dose: 400.0 mg/kg/injection, schedule: Q01DX009 (ip), vehicle: saline): 150 % of control | T/C (dose: 500.0 mg/kg/injection, schedule: Q01DX009 (ip), vehicle: other): 86 % of control | T/C (dose: 600.0 mg/kg/injection, schedule: Q02DX005 (ip), vehicle: other): 156 % of control

Cl/C=C(\Cl)CCl
T/C [7]: 108 % of control | T/C [8]: 90 % of control

O=C(Nc1cccc(Cl)c1)Nc1cc(Cl)ccc1Cl
T/C [12]: 100 % of control | T/C [13]: 89 % of control | T/C [16]: 86 % of control

COc1ccc2nc3cc(Cl)ccc3c(Nc3ccc(O)c(CN(CCCl)CCCl)c3)c2c1
T/C (dose: 0.25 mg/kg/injection, schedule: Q01DX009 (ip), vehicle: saline): 104 % of control | T/C (dose: 0.5 mg/kg/injection, schedule: Q01DX009 (ip), vehicle: saline): 121 % of control | T/C (dose: 1.0 mg/kg/injection, schedule: Q01DX009 (ip), vehicle: saline): 120 % of control

CC(=O)SCC(C)CCl (stereo not drawn)
T/C [10]: 100 % of control | T/C [12]: 100 % of control
